Patent US7855205B2, “Pyrimidinyl substituted fused-pyrrolyl compounds useful in treating kinase disorders” (Janssen Pharmaceutica NV, priority 2004, dated 2010)

How the values were obtained:
VEGF-R2 = target: T1, VEGF-R2 (Rattus norvegicus, UniProt O08775); experiment: VEGF-R2 Screening Assay; assay type: biochemical; conditions: 33P-γ-ATP incorporation, 10 μM ATP
T1 construct: polyhistidine (N)
Summary of the method: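 The N-terminally His-tagged rat VEGF-R2 kinase domain (aa 786-1343), diluted in 50 mM Tris-HCl pH 8.0 with 0.1% BSA, phosphorylated a biotinylated histone-H1 peptide with 33P-γ-ATP on Flashplates for 1 h at 30 °C in 1% DMSO. After washes with EDTA/PBS, immobilized 33P was counted by scintillation.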

[1] = system: HeLa cervical adenocarcinoma; experiment: Inhibition of cell proliferation (14C-thymidine incorporation), HeLa; assay type: cell-based; conditions: Homo sapiens;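 also: HeLa cells in 96-well scintillating plates, compound for 24 h then 24 h more with 14C-thymidine, counting label built into new DNA against DMSO-only control wells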
A375 malignant melanoma = experiment: Inhibition of cell proliferation (14C-thymidine incorporation), A375; assay type: cell-based, human; conditions: Homo sapiens, A-375
Summary of the method: (§1)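 Cells (3000-8000/well) grown 24 h at 37° C, 5% CO2, then given compound in DMSO for 24 h before adding methyl 14C-thymidine (0.2 uCi/well) for a further 24 h with drug. After PBS washes, incorporation into DNA counted by scintillation.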

HCT-116 colon carcinoma = experiment: Inhibition of cell proliferation (14C-thymidine incorporation), HCT-116; assay type: cell-based; conditions: Homo sapiens, HCT-116, HCT116
Summary of the method: as §1

HER2 = target: T2, HER2 (Homo sapiens, UniProt P04626); experiment: HER2 kinase Screening Assay; assay type: biochemical; conditions: 33P-γ-ATP incorporation, 10 μM ATP
T2 construct: polyhistidine (N)
T2 sequence (P04626 676-1255 limits assumed): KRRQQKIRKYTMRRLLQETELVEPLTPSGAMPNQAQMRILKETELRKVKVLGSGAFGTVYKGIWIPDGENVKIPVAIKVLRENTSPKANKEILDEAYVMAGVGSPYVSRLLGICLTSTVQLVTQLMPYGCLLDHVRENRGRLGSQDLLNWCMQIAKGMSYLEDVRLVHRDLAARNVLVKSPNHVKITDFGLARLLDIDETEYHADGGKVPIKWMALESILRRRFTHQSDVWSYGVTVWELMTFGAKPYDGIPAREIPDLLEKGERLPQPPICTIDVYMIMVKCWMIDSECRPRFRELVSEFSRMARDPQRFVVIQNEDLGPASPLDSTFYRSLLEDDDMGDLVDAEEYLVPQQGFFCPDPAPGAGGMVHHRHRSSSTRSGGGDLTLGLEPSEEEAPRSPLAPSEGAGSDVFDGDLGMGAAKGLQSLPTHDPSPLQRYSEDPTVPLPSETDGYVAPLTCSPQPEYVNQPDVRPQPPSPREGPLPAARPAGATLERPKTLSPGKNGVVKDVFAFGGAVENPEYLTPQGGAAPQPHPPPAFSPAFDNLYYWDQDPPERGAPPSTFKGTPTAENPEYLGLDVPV

Aurora-A = target: T3, Aurora-A (Mus musculus, UniProt P97477); experiment: Aurora-A Screening Assay; assay type: biochemical, murine; conditions: 33P-γ-ATP incorporation, 10 μM ATP
T3 construct: made in house; host or cells: sf9 insect cells
T3 sequence (P97477 1-395): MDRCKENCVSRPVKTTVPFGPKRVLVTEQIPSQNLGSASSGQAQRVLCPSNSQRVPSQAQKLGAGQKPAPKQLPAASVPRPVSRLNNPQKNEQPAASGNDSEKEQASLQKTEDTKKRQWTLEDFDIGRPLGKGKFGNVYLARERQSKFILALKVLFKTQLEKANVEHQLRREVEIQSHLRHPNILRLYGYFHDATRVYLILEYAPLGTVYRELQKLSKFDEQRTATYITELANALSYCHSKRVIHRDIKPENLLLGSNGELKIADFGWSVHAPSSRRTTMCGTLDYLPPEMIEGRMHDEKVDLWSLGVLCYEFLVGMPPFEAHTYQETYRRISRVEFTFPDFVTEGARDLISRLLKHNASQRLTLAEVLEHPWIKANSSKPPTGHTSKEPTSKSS

CDK1:Cyclin-B = target: T4, CDK1:Cyclin-B (Homo sapiens, UniProt P06493); experiment: CDK1 Screening Assay; assay type: biochemical; conditions: 33P-γ-ATP incorporation, 10 μM ATP
T4 construct: purchased New England Biolabs, Beverly, Mass; 6020; host or cells: insect cells
T4 sequence (P06493 whole entry): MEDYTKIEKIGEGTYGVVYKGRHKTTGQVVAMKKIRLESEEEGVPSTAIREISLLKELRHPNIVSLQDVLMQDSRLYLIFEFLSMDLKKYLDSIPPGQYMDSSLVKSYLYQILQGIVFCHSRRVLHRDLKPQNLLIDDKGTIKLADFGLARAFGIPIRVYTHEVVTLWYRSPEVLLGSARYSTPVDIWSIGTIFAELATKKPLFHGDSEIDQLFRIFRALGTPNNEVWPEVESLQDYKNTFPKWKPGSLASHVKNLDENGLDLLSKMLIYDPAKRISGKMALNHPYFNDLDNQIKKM
T4 sequence (P14635 whole entry partner): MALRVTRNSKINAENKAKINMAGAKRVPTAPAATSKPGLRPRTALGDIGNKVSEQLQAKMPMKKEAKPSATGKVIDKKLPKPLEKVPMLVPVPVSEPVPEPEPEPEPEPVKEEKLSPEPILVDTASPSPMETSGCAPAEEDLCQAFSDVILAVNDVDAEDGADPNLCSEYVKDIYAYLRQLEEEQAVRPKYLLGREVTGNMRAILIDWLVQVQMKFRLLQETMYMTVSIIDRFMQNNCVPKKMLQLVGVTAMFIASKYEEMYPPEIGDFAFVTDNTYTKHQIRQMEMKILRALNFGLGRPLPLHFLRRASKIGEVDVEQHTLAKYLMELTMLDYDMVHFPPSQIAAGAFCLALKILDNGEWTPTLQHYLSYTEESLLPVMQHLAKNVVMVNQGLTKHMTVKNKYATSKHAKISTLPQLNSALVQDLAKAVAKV
Summary of the method: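 Human CDK1/cyclin B co-expressed in insect cells (30 ng/well) in 50 mM Tris pH 8, 10 mM MgCl2, with 10 μM ATP, 33P-γ-ATP and 0.025 μM biotinylated histone H1 peptide (reaction-mix levels); 1% DMSO final. 1 h at 30° C. 33P incorporation into streptavidin-captured peptide by scintillation counting.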

RET = target: T5, RET (Homo sapiens, UniProt P07949); experiment: RET Kinase Screening Assay; assay type: biochemical; conditions: 33P-γ-ATP incorporation, 10 μM ATP
T5 construct: the RET cytoplasmic domain consisting of the last 492 amino acids of the intracellular domain of the RET tyrosine kinase; histidine tag (N); made in house; host or cells: Hi5 insect cells
T5 sequence (P07949 658-1114 limits assumed): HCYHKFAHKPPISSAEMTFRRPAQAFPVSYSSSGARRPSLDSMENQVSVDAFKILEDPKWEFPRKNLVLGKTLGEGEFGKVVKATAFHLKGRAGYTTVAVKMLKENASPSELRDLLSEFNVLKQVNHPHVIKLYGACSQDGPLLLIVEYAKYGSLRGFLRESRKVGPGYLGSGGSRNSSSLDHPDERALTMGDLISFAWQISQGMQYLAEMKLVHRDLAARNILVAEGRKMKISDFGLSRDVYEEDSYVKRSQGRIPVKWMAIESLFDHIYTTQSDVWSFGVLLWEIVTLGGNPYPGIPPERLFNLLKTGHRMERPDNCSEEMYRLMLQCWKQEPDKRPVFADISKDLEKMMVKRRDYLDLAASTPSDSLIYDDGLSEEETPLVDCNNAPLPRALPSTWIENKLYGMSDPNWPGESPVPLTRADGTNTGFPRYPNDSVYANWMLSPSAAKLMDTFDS

T1 sequence (O08775 786-1343): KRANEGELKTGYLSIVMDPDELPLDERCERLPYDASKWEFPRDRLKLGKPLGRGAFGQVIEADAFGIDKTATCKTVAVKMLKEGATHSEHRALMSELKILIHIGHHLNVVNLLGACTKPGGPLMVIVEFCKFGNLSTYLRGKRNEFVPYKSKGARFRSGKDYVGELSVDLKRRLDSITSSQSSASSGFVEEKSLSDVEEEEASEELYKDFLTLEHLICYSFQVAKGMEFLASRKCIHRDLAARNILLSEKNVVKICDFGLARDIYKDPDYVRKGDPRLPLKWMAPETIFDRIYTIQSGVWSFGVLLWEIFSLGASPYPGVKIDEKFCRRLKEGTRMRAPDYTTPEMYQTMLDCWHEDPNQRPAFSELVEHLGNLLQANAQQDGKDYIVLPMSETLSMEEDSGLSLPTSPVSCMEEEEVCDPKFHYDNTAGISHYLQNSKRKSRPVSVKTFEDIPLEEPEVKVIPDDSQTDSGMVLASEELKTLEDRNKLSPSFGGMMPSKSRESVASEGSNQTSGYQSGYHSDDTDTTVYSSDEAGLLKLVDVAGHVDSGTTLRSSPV

IC50 (VEGF-R2) | IC50 [1] | IC50 (A375 malignant melanoma) | IC50 (HCT-116 colon carcinoma) | IC50 (HER2) | IC50 (Aurora-A) | IC50 (CDK1:Cyclin-B) | IC50 (RET) | Compound
0.087 µM | 0.056 µM | 0.066 µM | 0.022 µM | 0.008 µM | 0.159 µM | 0.019 µM | 0.337 µM | OCCc1ccc(Nc2nccc(-c3c[nH]c4ncccc34)n2)cc1 [Cpd 1, 2-{4-[4-(1H-Pyrrolo[2,3-b]pyridin-3-yl)-pyrimidin-2-ylamino]-phenyl}-ethanol]
0.046 µM | 0.33 µM | 0.75 µM | 0.56 µM | 0.206 µM | 0.063 µM | 0.169 µM | – | COc1cc(Nc2nccc(-c3c[nH]c4ncccc34)n2)cc(OC)c1OC [Cpd 2, [4-(1H-Pyrrolo[2,3-b]pyridin-3-yl)-pyrimidin-2-yl]-(3,4,5-trimethoxy-phenyl)-amine]
0.213 µM | 0.382 µM | 0.468 µM | 0.26 µM | 0.032 µM | 0.159 µM | 0.054 µM | 1 µM | c1ccc(Nc2nccc(-c3c[nH]c4ncccc34)n2)cc1 [Cpd 3, Phenyl-[4-(1H-pyrrolo[2,3-b]pyridin-3-yl)-pyrimidin-2-yl]-amine]
0.01 µM | 0.062 µM | 0.061 µM | 0.062 µM | 0.01 µM | 0.173 µM | 0.021 µM | 1.41 µM | OCCOc1ccc(Nc2nccc(-c3c[nH]c4ncccc34)n2)cc1 [Cpd 4, 2-{4-[4-(1H-Pyrrolo[2,3-b]pyridin-3-yl)-pyrimidin-2-ylamino]-phenoxy}-ethanol]
0.065 µM | 0.029 µM | 0.021 µM | 0.013 µM | 0.011 µM | 0.162 µM | 0.032 µM | – | c1cnc2[nH]cc(-c3ccnc(Nc4ccc(CCN5CCCC5)cc4)n3)c2c1 [Cpd 19, [4-(2-Pyrrolidin-1-yl-ethyl)-phenyl]-[4-(1H-pyrrolo[2,3-b]pyridin-3-yl)-pyrimidin-2-yl]-amine]
0.186 µM | 0.14 µM | 0.11 µM | 0.037 µM | 0.025 µM | 0.253 µM | 0.134 µM | 0.892 µM | c1cnc2[nH]cc(-c3ccnc(Nc4ccc(CCN5CCNCC5)cc4)n3)c2c1 [Cpd 20, [4-(2-piperazin-1-yl-ethyl)-phenyl]-[4-(1H-pyrrolo[2,3-b]pyridin-3-yl)-pyrimidin-2-yl]-amine]
0.084 µM | 0.035 µM | 0.055 µM | 0.018 µM | 0.011 µM | 0.173 µM | 0.074 µM | 0.587 µM | c1cnc2[nH]cc(-c3ccnc(Nc4ccc(CCN5CCOCC5)cc4)n3)c2c1 [Cpd 22, [4-(2-Morpholin-4-yl-ethyl)-phenyl]-[4-(1H-pyrrolo[2,3-b]pyridin-3-yl)-pyrimidin-2-yl]-amine]
0.066 µM | 0.03 µM | 0.024 µM | 0.025 µM | 0.012 µM | 0.257 µM | 0.039 µM | – | CN(C)CCc1ccc(Nc2nccc(-c3c[nH]c4ncccc34)n2)cc1 [Cpd 23, [4-(2-Dimethylamino-ethyl)-phenyl]-[4-(1H-pyrrolo[2,3-b]pyridin-3-yl)-pyrimidin-2-yl]-amine]
0.093 µM | 0.062 µM | 0.04 µM | 0.068 µM | 0.012 µM | 0.182 µM | 0.051 µM | – | CNCCc1ccc(Nc2nccc(-c3c[nH]c4ncccc34)n2)cc1 [Cpd 25, [4-(2-Methylamino-ethyl)-phenyl]-[4-(1H-pyrrolo[2,3-b]pyridin-3-yl)-pyrimidin-2-yl]-amine]

Compound | IC50 (VEGF-R2) | IC50 [1] | IC50 (A375 malignant melanoma) | IC50 (HCT-116 colon carcinoma) | IC50 (HER2) | IC50 (Aurora-A) | IC50 (CDK1:Cyclin-B) | IC50 (RET)
CN1CCN(CCc2ccc(Nc3nccc(-c4c[nH]c5ncccc45)n3)cc2)CC1 [Cpd 21, {4-[2-(4-Methyl-piperazin-1-yl)-ethyl]-phenyl}-[4-(1H-pyrrolo[2,3-b]pyridin-3-yl)-pyrimidin-2-yl]-amine] | 0.075 µM | 0.0315 µM | 0.0295 µM | 0.0159 µM | 0.009 µM | 0.197 µM | 0.068 µM | –
CCN(CC)CCc1ccc(Nc2nccc(-c3c[nH]c4ncccc34)n2)cc1 [Cpd 24, [4-(2-Diethylamino-ethyl)-phenyl]-[4-(1H-pyrrolo[2,3-b]pyridin-3-yl)-pyrimidin-2-yl]-amine] | 0.089 µM | 0.034 µM | 0.031 µM | 0.018 µM | 0.009 µM | 0.244 µM | 0.028 µM | –
CCNCCc1ccc(Nc2nccc(-c3c[nH]c4ncccc34)n2)cc1 [Cpd 26, [4-(2-Ethylamino-ethyl)-phenyl]-[4-(1H-pyrrolo[2,3-b]pyridin-3-yl)-pyrimidin-2-yl]-amine] | 0.094 µM | 0.026 µM | 0.0222 µM | 0.0135 µM | 0.006 µM | 0.157 µM | 0.014 µM | –
